Data reported in patent US6329344A, “Derivatives of monosaccharides as cell adhesion inhibitors” (Ranbaxy Laboratories Limited, priority 1998, dated 2001).
Like-named read-outs stand apart in the source and are kept apart here.

System: murine contact hypersensitivity response
Experiment: Mouse Ear Swelling Test (MEST), DNFB contact hypersensitivity
Format: in vivo, Swiss albino mice
Conditions: ear thickness 24 hours after challenge; for ED30 / ED40: Mus musculus, 24 h; for ED30: read-out: EC30 (ED30, dose for 30% inhibition of ear swelling); for ED40: read-out: EC40 (ED40, dose for 40% inhibition of ear swelling)
Description: The in vitro cell adhesion assay was used to measure the effect of a test compound on adhesion of human T cell line (Jurkat J6) on surfaces coated with VCAM-1. The MEST assesses the ability of the experimental compounds to inhibit the delayed-type hypersensitivity response of sensitized mice against a potent allergen, 1,4-Dinitrofluoro benzene. These two assays are appropriate for screening compounds for two different activities. The cell adhesion assay determines the effect of compounds on the interaction of VLA4 molecules expressed on the surface of Jurkat cells with its counter-receptor, VCAM-1, immobilized on microtitre plate surface. Conversely, the MEST determines the potency of compounds to inhibit the murine contact hypersensitivity response induced by exposing mice to the potent allergen 1,4-Dinitrofluoro benzene. The Chisolm et al method was used in this respect (Chisolm et al, Eur. J. Immunology 1993;23:682).
We tested the efficacy of compounds synthesized in this invention to inhibit the act hypersensitivity in Swiss mice as follows:
20 to 25 gm female Swiss albino mice (animals procured from National Institute of Immunology, New Delhi, India and maintained in our Experimental Animal Facility) were anesthetized with anesthetic ether (Sisco Research Laboratories Ltd., India). A 2 cm^2 patch of dorsal skin was shaved using a hair clipper. The exposed skin was then dermabraded using No. 100 sandpaper gently. 25 μL freshly prepared 0.5% 1,4-Dinitrofluoro benzene in 4:1 (v/v) acetone:olive oil solution was then topically applied onto the dermabraded skin to encourage a mild inflammation reaction. Twenty-four hours after the initial sensitization, the mice were again sensitized with 25 μL freshly prepared 0.5% 1,4-Dinitrofluor benzene (DNFB) in 4:1 (v/v) acetone:olive oil solution on the same dermabraded site as before. The second sensitization was performed while restraining the non-anesthetized, conscious mouse.
2. Administration of Compound
On day 5, compounds were dissolved in an aqueous solvent (pyrogen-free water, alkaline water, or ethanol) and further diluted in pyrogen-free water to prepare appropriate doses. Solutions were administered by intravenous, subcutaneous or oral route.
3. Challenge and Measurement of Ear Thickness
Two hours following administration of the compounds, the animals were physically restrained and painted with 25 μL of freshly prepared 0.5% DNFB in 4:1 (v/v) acetone:olive oil solution on the right ear. The thickness of the right ear was measured using a Series 300 Odimeter (Dyer Gauge Inc, USA) at the time of challenge (0 hr), 4 hours and 24 hours after challenge while physically restraining the non-anesthetized mice. In a separate experiment, it was ascertained that 4:1 (v/v) acetone:olive oil vehicle has no effect on ear thickness.
4. Determination of Effective Concentration of the Compounds
Inhibition of the ear swelling was judged by comparison of treated groups with their negative control groups. Percent inhibition was calculated as: [formula]
STEST =Mean ear thickness in test group at 24 hours after challenge
STEST-zero =Mean ear thickness in test group at zero hours after challenge
SNC =Mean ear thickness in negative control group at 24 hours after challenge
SNC-zero =Mean ear thickness in negative control group at zero hours after challenge
The percentage inhibition of swelling obtained by the above calculation was plotted against log dose using the Graph Pad Prizm software and, from this plot, the log dose corresponding to 30% inhibition (log ED30) and 40% (log ED40) inhibition was determined.
Aqueous solutions of appropriate doses (1 μg/kg to 100 mg/kg) were administered by intravenous route 2 hrs before challenge and their effect on ear thickness was measured. Concentrations inhibiting ear swelling by 30% and 40% were determined and expressed as amount (ng, μg or mg) per Kg body weight.

[1] = I.V., amount per Kg body weight
[2] = S.C., amount per Kg body weight

Row | Structure (SMILES) | ED30 [1] | ED40 [1] | ED30 (Oral) | ED30 [2] | ED40 [2] | ED40 (Oral) | EC30 (ED30, dose for 30% inhibition of ear swelling) [1]
1 | CCCCCCCCCCCCO[C@@H]1[C@H]2OC(C)(C)O[C@H]2O[C@@H]1CNC(=O)Nc1ccc(CC(=O)O)cc1 [Compound 53, 1,2-O-isopropylidene-3-O-dodecyl-5-deoxy-5-N-{[4-(2-hydroxy-2-oxoethyl)phenyl]aminocarbonylamino}-α,D-xylofuranose] | 10 µg/kg | 0.07 mg/kg | 1 µg/kg | 0.5 µg/kg | 0.01 mg/kg |  | 
2 | CCCCCCCCCCCCO[C@H]1[C@H]2OC(C)(C)O[C@H]2O[C@@H]1CNC(=O)Nc1ccc(CC(=O)O)cc1 [Compound 76, 1,2-O-isopropylidene-3-O-dodecyl-5-deoxy-5-N-{[4-(2-hydroxy-2-oxoethyl)phenyl]aminocarbonylamino}-α,D-ribofuranose] |  |  | 0.29 µg/kg |  |  | 0.0813 mg/kg | 
3 | CC(C)C[C@H](NC(=O)[C@@]12O[C@H]3COC(C)(C)O[C@H]3[C@@H]1OC(C)(C)O2)C(=O)N[C@@H](CC(=O)O)C(=O)N[C@H](C(=O)N1CCC[C@H]1C(=O)O)C(C)C [Compound 122, 2,3; 4,6-Di-O-isopropylidene-1-carbonyl-L-Leucyl-α,L-Aspartyl-L-Valyl-LProline-α,L-xylo-2-hexulofuranosonic acid] | 12000 µg/kg |  |  |  |  |  | 8 mg/kg
